Source: patent publication US20260217699A1, “BERBERINE TAUROURSODEOXYCHOLATE COMPOSITIONS AND METHODS THEREOF” (SHENZHEN HIGHTIDE BIOPHARMACEUTICAL LTD., priority 2023, published 2026)
Like-named read-outs stand apart in the source and are kept apart here.

Assays:
[1] = assay type: physicochemical; conditions: for Purity/%: initial purity 99.45%
Procedure: The standard XRPD patterns were collected using a Panalytical EMPYREAN (PANalytical, UK). The X-ray source was a Cu tube that was operated at 45 kV and 40 mA. Powder samples were prepared on zero-background Si holders using manual light pressure to keep the sample surface flat. Each sample was analyzed from 3 to 45° (2θ) with an effective step size of 0.013° 20. The measurement time of each sample was 3.5 min.
The stability of Form A was studied under high temperature (60° C.), high humidity (25° C./92.5% RH), light (25° C./4500 Lux), and accelerated (40° C./75% RH) conditions, and the samples were taken at 7 and 15 days for XRPD characterization and HPLC tests, respectively, and the results are shown in Tables 3-4 and FIG. 17.

[2] = Thermal transcrystallization experiment (variable temperature XRPD); assay type: physicochemical; conditions: heating to 150° C. and back to room temperature
Procedure: The form conversion by heating was carried out using an online variable temperature XRPD Malvern PANalytical Aeris (Malvern Panalytical, UK). The X-ray source was a Cu tube that was operated at 40 kV and 7.5 mA. Powder samples were prepared on zero-background Si holders using manual light pressure to keep the sample surface flat. Each sample was analyzed from 3 to 40° (2θ) with an effective step size of 0.02° 20. The measurement time of each sample was 13 min. The sample was placed on a BTS500 hot stage (Anton Paar, AT) to collected XRPD at RT, heated to the target temperature at 20° C./min and held for 10 min before XRPD analysis. The sample was then cooled to RT and characterized by XRPD.
(§1) The synthesized BTUDC was designated as crystalline form A (Form A), and its XRPD diffraction and other related characterization data are shown in FIGS. 11-15. […] (peak at 43° C.), and an endothermic peak at about 280° C.

[3] = Rapid dynamic vapor sorption (Fast DVS) of Form A; assay type: physicochemical
Procedure: as §1

[4] = Accelerated 40° C./75% RH, 7 Days
[5] = Accelerated 40° C./75% RH, 15 Days
[6] = High Humidity 25° C./92.5% RH, 7 Days
[7] = High Humidity 25° C./92.5% RH, 15 Days
[8] = Light Exposure 25° C./4500 Lux, 7 Days
[9] = Light Exposure 25° C./4500 Lux, 15 Days

## COc1ccc2cc3[n+](cc2c1OC)CCc1cc2c(cc1-3)OCO2.C[C@H](CCC(=O)NCCS(=O)(=O)[O-])[C@H]1CC[C@H]2[C@@H]3[C@@H](O)C[C@@H]4C[C@H](O)CC[C@]4(C)[C@H]3CC[C@]12C [Form A, berberine tauroursodeoxycholate]
[1]; [4]
  XRPD Changes: No
  Purity/%: 99.44%
[1]; [5]
  XRPD Changes: No
  Purity/%: 99.41%
[1]; HPLC main peak RRT 1.00, Accelerated 15 Days, Day 0: 99.45
  Relative Peak Area (%): 99.41%
[1]; HPLC main peak RRT 1.00, High Humidity 15 Days, Day 0: 99.45
  Relative Peak Area (%): 99.44%
[1]; HPLC main peak RRT 1.00, High Temp. 15 Days, Day 0: 99.45
  Relative Peak Area (%): 99.24%
[1]; HPLC main peak RRT 1.00, Light Exposure 15 Days, Day 0: 99.45
  Relative Peak Area (%): 98.53%
[1]; HPLC peak RRT 0.39, Light Exposure 15 Days, Day 0: /
  Relative Peak Area (%): 0.05%
[1]; HPLC peak RRT 0.55, Light Exposure 15 Days, Day 0: /
  Relative Peak Area (%): 0.06%
[1]; HPLC peak RRT 0.70, Accelerated 15 Days, Day 0: 0.05
  Relative Peak Area (%): 0.07%
[1]; HPLC peak RRT 0.70, High Humidity 15 Days, Day 0: 0.05
  Relative Peak Area (%): 0.07%
[1]; HPLC peak RRT 0.70, High Temp. 15 Days, Day 0: 0.05
  Relative Peak Area (%): 0.10%
[1]; HPLC peak RRT 0.70, Light Exposure 15 Days, Day 0: 0.05
  Relative Peak Area (%): 0.77%
[1]; HPLC peak RRT 0.73, Light Exposure 15 Days, Day 0: /
  Relative Peak Area (%): 0.03%
[1]; HPLC peak RRT 0.76, Light Exposure 15 Days, Day 0: /
  Relative Peak Area (%): 0.07%
[1]; HPLC peak RRT 0.79, Light Exposure 15 Days, Day 0: /
  Relative Peak Area (%): 0.05%
[1]; HPLC peak RRT 0.82, Accelerated 15 Days, Day 0: 0.13
  Relative Peak Area (%): 0.13%
[1]; HPLC peak RRT 0.82, High Humidity 15 Days, Day 0: 0.13
  Relative Peak Area (%): 0.13%
[1]; HPLC peak RRT 0.82, High Temp. 15 Days, Day 0: 0.13
  Relative Peak Area (%): 0.13%
[1]; HPLC peak RRT 0.82, Light Exposure 15 Days, Day 0: 0.13
  Relative Peak Area (%): 0.11%
[1]; HPLC peak RRT 0.84, Accelerated 15 Days, Day 0: 0.06
  Relative Peak Area (%): 0.07%
[1]; HPLC peak RRT 0.84, High Humidity 15 Days, Day 0: 0.06
  Relative Peak Area (%): 0.06%
[1]; HPLC peak RRT 0.84, High Temp. 15 Days, Day 0: 0.06
  Relative Peak Area (%): 0.06%
[1]; HPLC peak RRT 0.84, Light Exposure 15 Days, Day 0: 0.06
  Relative Peak Area (%): 0.06%
[1]; HPLC peak RRT 0.90, Accelerated 15 Days, Day 0: 0.31
  Relative Peak Area (%): 0.32%
[1]; HPLC peak RRT 0.90, High Humidity 15 Days, Day 0: 0.31
  Relative Peak Area (%): 0.30%
[1]; HPLC peak RRT 0.90, High Temp. 15 Days, Day 0: 0.31
  Relative Peak Area (%): 0.48%
[1]; HPLC peak RRT 0.90, Light Exposure 15 Days, Day 0: 0.31
  Relative Peak Area (%): 0.27%
[1]; [6]
  XRPD Changes: No
  Purity/%: 99.44%
[1]; [7]
  XRPD Changes: No
  Purity/%: 99.44%
[1]; High Temp. 60° C., 7 Days
  XRPD Changes: No
  Purity/%: 99.28%
[1]; High Temp. 60° C., 15 Days
  XRPD Changes: No
  Purity/%: 99.24%
[1]; [8]
  XRPD Changes: No
  Purity/%: 98.92%
[1]; [9]
  XRPD Changes: No
  Purity/%: 98.53%
[1]; high temperature, high humidity and accelerated conditions for 15 days
  change in chemical purity (HPLC): no significant change
[1]; light conditions for 15 days
  change in chemical purity (HPLC): significant decrease
[2]
  crystalline form during heating: remained unchanged
[3]; at 80% RH
  adsorption weight gain: about 0.46%
  desorption weight gain: about 0.49%
[3]; at 95% RH
  adsorption weight gain: about 0.74%
[3]; compared to the pre-test
  change in crystalline shape after the DVS test (XRPD): did not undergo any change in crystalline shape
